# Source: paper PMC11859031, “Assessment of the In Vitro Biological Activities of Schiff Base-Synthesized Copper Oxide Nanoparticles as an Anti-Diabetic, Anti-Alzheimer, and Anti-Cancer Agent” (Pharmaceutics, 2025)
# Legend:
# [1] = target: T1, α-amylase (Sus scrofa, UniProt P00690); assay: α-amylase inhibition (anti-diabetic); type: biochemical; settings: at 100 µg/mL; mean ± SE, n = 3
# T1 sequence (P00690 16-511): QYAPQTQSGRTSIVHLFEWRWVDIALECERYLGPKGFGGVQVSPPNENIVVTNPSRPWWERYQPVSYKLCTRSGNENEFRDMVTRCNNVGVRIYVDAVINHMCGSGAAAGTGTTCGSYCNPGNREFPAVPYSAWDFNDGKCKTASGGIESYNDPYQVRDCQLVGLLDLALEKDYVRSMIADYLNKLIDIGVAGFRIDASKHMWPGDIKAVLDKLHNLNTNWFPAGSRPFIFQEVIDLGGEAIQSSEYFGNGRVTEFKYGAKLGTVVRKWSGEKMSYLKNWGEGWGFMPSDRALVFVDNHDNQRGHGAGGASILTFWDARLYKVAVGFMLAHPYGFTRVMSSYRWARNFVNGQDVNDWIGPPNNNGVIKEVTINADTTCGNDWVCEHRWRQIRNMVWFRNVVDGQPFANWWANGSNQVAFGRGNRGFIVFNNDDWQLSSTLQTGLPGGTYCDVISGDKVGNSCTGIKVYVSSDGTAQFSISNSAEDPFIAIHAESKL
# Procedure: 3.3. Anti-diabetic activity […]
# tetrahydrate in 8.0 mL of 2 M NaOH and 20 mL of 96 mM of DNSA solution). The […]
# (§1) The absorbance was measured at 540 nm using a UV-Visible spectrophotometer. The IC50 of each tested sample was calculated by plotting a curve using a series of sample concentrations against the percent of α-amylase inhibition.
# (§2) The inhibition percentage (%) of the α-glucosidase enzyme was determined using the […]
# (§3) standard drug. Five μL of the α-glucosidase solution (10 units mL−1, 0.1moll−1 potassium phosphate buffer, pH 6.8) was pre -mixed with 10 μL of the sample solution at different concentrations (in 10% DMSO) i n 620 μL of 0.1 moll−1 potassium […]
# (§4) phosphate buffer (pH 6.8). […]
# (§5) phenyl glucopyranoside (pNPG, 10 mmoll−1) as a substrate was added to the mixture […]
# (§6) minutes, followed by the addition of 650 μL of 1 moll−1 Na2CO3 solution to terminate the reaction. The amount of released product (p-nitro phenol) was measured at 410 […]
# activity. […] The IC50 of each tested sample was calculated by plotting a curve using a series of sample concentrations against the percent of α-glucosidase inhibition. […]
# (§7) In this study, we assessed the inhibition percentage of the acetylcholinesterase (AChE) enzyme using Ellman's method with donepezil as the standard drug. […] After incubation, 5 µL of AChE at a concentration of 0.3 U/mL was added to start the reaction, and the absorbance […]
# [2] = target: α-glucosidase (Saccharomyces cerevisiae, UniProt P53341); type: biochemical
# Procedure: as §1, §2, §3, §4, §5, §6
# activity. The inhibition assay was performed in triplicate for all tests. The IC50 of each tested sample was calculated by plotting a curve using a series of sample concentrations against the percent of α-glucosidase inhibition.
# 3.4. Anti-Alzheimer's activity
# as §7
# Chain of α-glucosidase (P53341 whole entry): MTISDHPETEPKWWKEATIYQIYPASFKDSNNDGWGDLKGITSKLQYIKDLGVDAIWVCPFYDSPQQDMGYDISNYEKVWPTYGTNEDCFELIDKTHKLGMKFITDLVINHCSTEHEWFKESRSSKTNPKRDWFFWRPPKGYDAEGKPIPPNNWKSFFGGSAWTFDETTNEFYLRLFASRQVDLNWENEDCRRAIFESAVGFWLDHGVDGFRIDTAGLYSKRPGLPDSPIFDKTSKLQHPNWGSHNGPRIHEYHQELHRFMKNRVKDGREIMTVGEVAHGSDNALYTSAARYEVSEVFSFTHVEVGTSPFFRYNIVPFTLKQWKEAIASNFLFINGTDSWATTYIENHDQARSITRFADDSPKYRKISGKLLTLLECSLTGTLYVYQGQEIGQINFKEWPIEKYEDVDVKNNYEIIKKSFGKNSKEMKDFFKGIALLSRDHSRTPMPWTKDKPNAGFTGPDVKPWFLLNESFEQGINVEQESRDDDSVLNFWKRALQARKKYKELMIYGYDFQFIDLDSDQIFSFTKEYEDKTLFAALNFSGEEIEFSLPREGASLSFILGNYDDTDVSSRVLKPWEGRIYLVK
smiles,measurement,setting,value
C[C@H]1O[C@H](O[C@H]2[C@H](O)[C@@H](O)[C@@H](O[C@H]3[C@H](O)[C@@H](O)C(O)O[C@@H]3CO)O[C@@H]2CO)[C@H](O)[C@@H](O)[C@@H]1N[C@H]1C=C(CO)[C@@H](O)[C@H](O)[C@H]1O (some centres unmarked) [Acarbose],α-Amylase Inhib. (%),[1],54.96 ± 0.10 Acarbose %
same,α-Glucosidase Inhib. (%),[2],44.71 ± 0.10 Acarbose %
